# According to ChEMBL document CHEMBL5550124, “Structure-activity relationship studies of tetrahydroquinolone derivatives as GPR41 modulators” (Bioorg Med Chem Lett, 2024):
# Active and inactive are the calls of the source. The rule behind the calls is not given here.
# What was measured:
# Assay type in all cases: functional, cell-based
# [1] = molecular target: T1, Free fatty acid receptor 3 (Homo sapiens) (UniProt O14843); assay: Antagonist activity at doxycyclin-induced GPR41 (unknown origin) overexpressed in HEK293 cells assessed as increase in forskolin/propionate-induced cAMP level at 1 uM
# T1 sequence (whole entry): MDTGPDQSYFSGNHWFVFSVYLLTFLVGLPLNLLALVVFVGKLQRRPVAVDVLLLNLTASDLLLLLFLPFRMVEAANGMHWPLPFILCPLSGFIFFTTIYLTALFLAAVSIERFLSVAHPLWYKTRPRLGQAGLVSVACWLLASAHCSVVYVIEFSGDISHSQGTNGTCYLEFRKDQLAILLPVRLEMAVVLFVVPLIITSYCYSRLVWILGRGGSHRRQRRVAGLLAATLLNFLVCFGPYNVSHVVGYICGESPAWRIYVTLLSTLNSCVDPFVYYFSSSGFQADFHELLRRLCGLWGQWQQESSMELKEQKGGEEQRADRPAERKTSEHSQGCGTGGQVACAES
# [2] = molecular target: T2, Free fatty acid receptor 3 (Homo sapiens, UniProt O14843); assay: Agonist activity at doxycyclin-induced GPR41 (unknown origin) overexpressed in HEK293 cells assessed as decrease in forskolin-induced cAMP level
# T2 sequence (O14843 whole entry): T1 sequence (whole entry)
# [3] = molecular target: T1, Free fatty acid receptor 3 (Homo sapiens); assay: Agonist activity at GPR41 (unknown origin) overexpressed in HEK293 cells assessed as decrease in forskolin-induced cAMP level
# [4] = molecular target: T1, Free fatty acid receptor 3 (Homo sapiens); assay: Agonist activity at doxycyclin-induced GPR41 (unknown origin) overexpressed in HEK293 cells assessed as decrease in forskolin-induced cAMP level at 1 uM
# [5] = molecular target: T3, Free fatty acid receptor 2 (Homo sapiens) (UniProt O15552); assay: Agonist activity at GPR43 (unknown origin) overexpressed in HEK293 cells assessed as decrease in forskolin-induced cAMP level at 1 uM
# T3 sequence (whole entry): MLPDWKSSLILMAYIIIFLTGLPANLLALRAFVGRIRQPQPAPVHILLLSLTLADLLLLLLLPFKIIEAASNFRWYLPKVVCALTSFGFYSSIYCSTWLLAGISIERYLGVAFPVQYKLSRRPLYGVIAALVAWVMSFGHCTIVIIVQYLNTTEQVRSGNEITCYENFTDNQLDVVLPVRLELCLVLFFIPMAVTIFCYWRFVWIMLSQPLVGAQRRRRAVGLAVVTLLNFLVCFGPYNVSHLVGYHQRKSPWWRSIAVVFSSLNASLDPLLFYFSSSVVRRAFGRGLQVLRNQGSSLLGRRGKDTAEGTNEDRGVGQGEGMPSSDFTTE
# [6] = molecular target: T1, Free fatty acid receptor 3 (Homo sapiens); assay: Agonist activity at doxycyclin-induced GPR41 (unknown origin) overexpressed in HEK293 cells assessed as decrease in forskolin-induced cAMP level at 30 uM
# [7] = molecular target: T1, Free fatty acid receptor 3 (Homo sapiens); assay: Agonist activity at doxycyclin-induced GPR41 (unknown origin) overexpressed in HEK293 cells assessed as decrease in forskolin-induced cAMP level at 10 uM; conditions: filed as agonist
smiles,measurement,setting,value
CC1=C(C(=O)Nc2ccccc2C)C(c2ccc(-c3cc(C)cc(C)c3)o2)C2=C(CCCC2=O)N1 (stereo unspecified),Activity,[1],inactive
CC1=C(C(=O)Nc2ccccc2C)C(c2ccc(-c3ccc(F)c(F)c3F)o2)C2=C(CCCC2=O)N1 (stereo unspecified),EC50,[2],5510 nM
same,Activity,[3],inactive
same,Activity,[4]; filed as agonist,Active
same,Activity,[5],inactive
CC1=C(C(=O)Nc2cc(Cl)ccc2Cl)C(c2ccc(-c3ccc(F)c(F)c3)o2)C2=C(CCCC2=O)N1 (stereo unspecified),Activity,[3],inactive
same,Activity,[6],inactive
CC1=C(C(=O)Nc2ccccc2C)C(c2ccc(-c3cccc(Cl)c3)o2)C2=C(CCCC2=O)N1 (stereo unspecified),Activity,[1],inactive
CC1=C(C(=O)Nc2ccccc2C)C(c2ccc(-c3ccccc3C#N)o2)C2=C(CCCC2=O)N1 (stereo unspecified),Activity,[1],inactive
CC1=C(C(=O)Nc2ccccc2C)C(c2ccc(-c3cc(F)c(F)c(F)c3)o2)C2=C(CCCC2=O)N1 (stereo unspecified),EC50,[2],5890 nM
same,Activity,[3],inactive
same,Activity,[4]; filed as agonist,Active
same,Activity,[5],inactive
CC1=C(C(=O)Nc2ccccc2C)C(c2ccc(-c3cccc(F)c3)o2)C2=C(CCCC2=O)N1 (stereo unspecified),Activity,[1],inactive
CC1=C(C(=O)Nc2ccccc2C)C(c2ccc(-c3ccc(F)cc3)o2)C2=C(CCCC2=O)N1 (stereo unspecified),Activity,[1],inactive
CC1=C(C(=O)Nc2ccccc2C)C(c2ccc(-c3cc(Cl)cc(Cl)c3)o2)C2=C(CCCC2=O)N1 (stereo unspecified),Activity,[4],inactive
CC1=C(C(=O)Nc2ccccc2C)C(c2ccc(-c3c(F)cccc3F)o2)C2=C(CCCC2=O)N1 (stereo unspecified),Activity,[4],inactive
COc1cccc(-c2ccc(C3C(C(=O)Nc4ccccc4C)=C(C)NC4=C3C(=O)CCC4)o2)c1 (stereo unspecified),Activity,[1],inactive
CC1=C(C(=O)Nc2ccccc2C)C(c2ccc(-c3cc(F)cc(F)c3)o2)C2=C(CCCC2=O)N1 (stereo unspecified),EC50,[2],679 nM
same,Activity,[3],inactive
same,Activity,[1],inactive
same,Activity,[4]; filed as agonist,Active
same,Activity,[5],inactive
CC1=C(C(=O)Nc2ccccc2C)C(c2ccc(-c3ccc(C(F)(F)F)cc3)o2)C2=C(CCCC2=O)N1 (stereo unspecified),Activity,[1],inactive
same,Activity,[4]; filed as agonist,Active
CC1=C(C(=O)Nc2cc(Cl)ccc2Cl)C(c2ccc(-c3cc(F)cc(F)c3)o2)C2=C(CCCC2=O)N1 (stereo unspecified),Activity,[3],inactive
same,Activity,[6],inactive
CC1=C(C(=O)Nc2ccccc2C)C(c2ccc(-c3ccccc3)o2)C2=C(CCCC2=O)N1 (stereo unspecified),Activity,[1],inactive
same,Activity,[7],Active
CC1=C(C(=O)Nc2ccccc2C)C(c2ccc(-c3cccc(C#N)c3)o2)C2=C(CCCC2=O)N1 (stereo unspecified),Activity,[1],inactive
CC1=C(C(=O)Nc2ccccc2C)C(c2ccc(-c3ccc(F)c(F)c3)o2)C2=C(CCCC2=O)N1 (stereo unspecified),EC50,[2],3400 nM
same,Activity,[3],inactive
same,Activity,[4]; filed as agonist,Active
same,Activity,[5],inactive
CC1=C(C(=O)Nc2ccccc2C)C(c2ccc(-c3ccccc3OC(F)(F)F)o2)C2=C(CCCC2=O)N1 (stereo unspecified),Activity,[1]; filed as antagonist,Active
COc1cc(OC)cc(-c2ccc(C3C(C(=O)Nc4ccccc4C)=C(C)NC4=C3C(=O)CCC4)o2)c1 (stereo unspecified),Activity,[1],inactive
CC1=C(C(=O)Nc2cc(Cl)ccc2Cl)C(c2ccc(-c3ccc(F)c(F)c3F)o2)C2=C(CCCC2=O)N1 (stereo unspecified),EC50,[2],447 nM
same,Activity,[3],inactive
same,Activity,[5],inactive
CC1=C(C(=O)Nc2ccccc2C)C(c2ccc(-c3cc(C(F)(F)F)cc(C(F)(F)F)c3)o2)C2=C(CCCC2=O)N1 (stereo unspecified),Activity,[1],inactive
CC1=C(C(=O)Nc2cc(Cl)ccc2Cl)C(c2ccco2)C2=C(CCCC2=O)N1 (stereo unspecified),EC50,[2],741 nM
same,Activity,[1],inactive
same,Activity,[5],inactive
CC1=C(C(=O)Nc2ccccc2C)C(c2ccc(-c3ccco3)o2)C2=C(CCCC2=O)N1 (stereo unspecified),Activity,[1],inactive
CC1=C(C(=O)Nc2ccccc2C)C(c2ccc(-c3ccc(F)cc3F)o2)C2=C(CCCC2=O)N1 (stereo unspecified),Activity,[4]; filed as agonist,Active
CC1=C(C(=O)Nc2cc(Cl)ccc2Cl)C(c2ccc(-c3cc(F)c(F)c(F)c3)o2)C2=C(CCCC2=O)N1 (stereo unspecified),Activity,[3],inactive
same,Activity,[6],inactive
CC1=C(C(=O)Nc2ccccc2C)C(c2ccc(-c3ccsc3)o2)C2=C(CCCC2=O)N1 (stereo unspecified),Activity,[1],inactive
CC1=C(C(=O)Nc2ccccc2C)C(c2ccc(-c3ccccc3F)o2)C2=C(CCCC2=O)N1 (stereo unspecified),Activity,[1],inactive
CC1=C(C(=O)Nc2ccccc2C)C(c2ccc(-c3cccc(C(F)(F)F)c3)o2)C2=C(CCCC2=O)N1 (stereo unspecified),Activity,[1],inactive
CC1=C(C(=O)Nc2ccccc2C)C(c2ccc(-c3ccccc3Cl)o2)C2=C(CCCC2=O)N1 (stereo unspecified),Activity,[1],inactive
CC1=C(C(=O)Nc2ccccc2C)C(c2ccc(-c3ccc(C)cc3)o2)C2=C(CCCC2=O)N1 (stereo unspecified),Activity,[1],inactive
CCC(=O)O,Activity,[1],inactive
same,Activity,[5]; filed as agonist,Active
CC1=C(C(=O)Nc2ccccc2C)C(c2ccc(-c3ccc(Cl)cc3)o2)C2=C(CCCC2=O)N1 (stereo unspecified),Activity,[1],inactive
CC1=C(C(=O)Nc2ccccc2C)C(c2ccc(-c3ccccc3C(F)(F)F)o2)C2=C(CCCC2=O)N1 (stereo unspecified),Activity,[1],inactive
